Source: US20150212068A1, “Cholyl-L-Lysyl-Fluorescein Assay” (Novassay SA, priority 2012, published 2015)
Entries after “also recorded” stand apart in the source; their conditions may differ.

Test system: serum/plasma proteins
Assay: Effect of ANS on CLF recovery in the labelled-antibody format
Assay type: in vitro ADME
Details: human serum/plasma spiked with CLF, competitive immunoassay
Text: This was successful in shifting the mean recovery to ˜100%. However, an unacceptably wide sample-to-sample variation was still observed (˜70-180%), therefore it was concluded that a blocker approach would be required, in which a chemical agent is used to displace the analyte from the binding proteins, so that it can be recovered effectively in the assay. […] ANS was therefore evaluated in more detail in this format.
The following study was executed to assess the recovery of CLF following spiking into human serum in assays, in the presence and absence of ANS.
25 μl of standard (in buffer) was added to streptavidin coated wells, followed by 100 ul of 20 ng/ml biotin-fluorescein (one formulation containing 0.2% ANS, the other without) and 100 μl of anti-fluorescein HRP (100 ng/ml). After 30 minutes incubation (RT/static) the wells were washed and 100 μl of SureBlue Reserve TMB substrate added. After a further 10 minutes incubation, 100 μl of 1M HCl was added and the colour intensity measured at 450 nm.
3 plasma samples (Lithium heparin) were spiked with CLF at […]; these concentrations (the expected values) are noted in the relevant sample IDs.

O=S(=O)(O)c1cccc2cccc(Nc3ccccc3)c12 [ANS, 8-anilino-1-naphthalene sulfonic acid]
displacement of CLF from serum/plasma proteins by blocker: effective in displacing CLF bound to serum/plasma proteins; also recorded: able to displace CLF from serum proteins
